Values quoted from earlier work as cited in patent US20090023700A1, “NEUROPROTECTIVE TREATMENTS” (University of Louisville Research Foundation, priority 2007, published 2009).

Tested on: AP1
Conditions: macrophages; cited from earlier work

In the case of `O=C(O)c1ccccn1.OO.OO.[K+].[K+].[O]=[V]` [bpV(pic), potassium bisperoxo(pyridine-2-carboxylato)oxovanadate(V)], the AP1 activation is listed as “does not”.
